Source: US4568666A, “Carboxylalkyl peptide derivatives” (G. D. Searle & Co., priority 1984, dated 1986)

Legend:
[1] = molecular target: T1, Human Rheumatoid Synovial Collagenase (Homo sapiens, UniProt P03956); assay: Collagenase inhibition (procedure of Cawston and Barrett, acetyl 14C collagen); format: biochemical; details: 37° C., 16 hours, native acetyl 14C collagen, Tris HCl-CaCl2 pH 7.6
T1 construct: from tissue
T1 sequence (P03956 100-469): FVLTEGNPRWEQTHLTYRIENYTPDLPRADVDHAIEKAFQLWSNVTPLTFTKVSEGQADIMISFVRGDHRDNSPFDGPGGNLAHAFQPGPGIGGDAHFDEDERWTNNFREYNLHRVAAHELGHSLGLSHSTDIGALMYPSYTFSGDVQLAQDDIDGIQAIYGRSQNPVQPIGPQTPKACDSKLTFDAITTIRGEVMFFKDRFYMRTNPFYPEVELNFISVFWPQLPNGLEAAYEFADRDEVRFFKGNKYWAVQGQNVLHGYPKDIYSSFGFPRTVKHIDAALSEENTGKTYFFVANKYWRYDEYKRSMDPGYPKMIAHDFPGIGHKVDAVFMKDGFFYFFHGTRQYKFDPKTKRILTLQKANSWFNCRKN
Method: This was determined following the procedure of Cawston and Barrett, Anal. Biochem., 99, 340-345 (1979) whereby the 1 mM of the inhibitor being tested or dilutions thereof are incubated at 37° C. for 16 hours with native collagen and collagenase (buffered with Tris HCl--CaCl2; pH 7.6). The collagen is acetyl ^14 C collagen. The samples are centrifuged to sediment undigested collagen and an aliquot of the radiactive supernatant removed for assay on a scintillation counter as a measure of hydrolysis. The collagenase activity in the presence of 1 mM inhibitor, or a dilution thereof, is compared to activity in a control devoid of inhibitor and the results reported as that inhibitor concentration effecting 50% inhibition of the collagenase.

[2] = tested on: rat model of inflammatory arthritis; assay: Rat model of inflammatory arthritis induced by Type II collagen (Trentham et al.); format: in vivo; details: prednisolone 0.625 mg/kg b.i.d.
Method: The therapeutic effectivness is assessed in the rat model of inflammatory arthritis described by Trentham et al. (1977). In this model, the arthritis, induced by an intradermal injection of Type II collagen, generally develops in both hind paws and the progression and severity of the lesion are monitored by physical measurements of the malleolar width and ankle extensibility.
The compound of Example II in the present specification was administered by intraperitoneal injections at 100 mg/kg twice daily for 21 days commencing seven days after the injection of the disease.
Drugs (Example 11 or prednisolone) and vehicle were administered to groups of 10 rats each. Physical measurements on the rat paws were made weekly for four weeks and consisted of (a) the distance between the medial and lateral malleolus (malleolar width) and (b) the ankle extension which was measured by applying a standard force to th rat paw and measuring the angle formed between the flexor surface of the foot and the tibia. Evidence of a therapeutic effect was denoted by a significant reduction in malleolar width and a significant increase in ankle extension. Both measurements were carried out in apparatus designed for the purpose. Area-under-the-curve data from these time course experiments was examinaed by non-parametic statistical analysis. The prednisolone standard was given at a dose of 0.625 mg/kg b.i.d. Prednisolone was chosen as a standard since steroids are known to be effective both clinically in Rheumatoid Arthritis and in animal models of arthritis.

[3] = arthritic rats' paws, Example 11 100 mg/kg i.p. twice daily for 21 days, area-under-the-curve data

What does the source list for CNC(=O)[C@H](Cc1ccc(OC)cc1)NC(=O)[C@H](CC(C)C)N[C@H](CCNC(=O)OCc1ccccc1)C(=O)O [Example 11, N-[3-N-(Benzyloxycarbonyl)amino-1-(R)-carboxypropyl]-L-leucyl-O-methyl-L-tyrosine N-Methylamide]?
IC50 [1]: 0.8 µM; Ankle extension, percentage change from control, experiment number 1 [2, 3]: 66%; Ankle extension, percentage change from control, experiment number 2 [2, 3]: 39%; Ankle extension, percentage change from control, experiment number 3 [2, 3]: 39%; Malleolar width, percentage change from control, experiment number 1 [2, 3]: 65%; Malleolar width, percentage change from control, experiment number 2 [2, 3]: 43%; Malleolar width, percentage change from control, experiment number 3 [2, 3]: 41%; Ankle extension, percentage change from control, mean ([2]; mean of experiments 1-3, Example 11 100 mg/kg i.p. twice daily): 48%
